Legend:
[1] = target: T1, Bromodomain-containing protein 4 (Homo sapiens, UniProt O60885); experiment: Binding affinity to BRD4 in human H1299 cells stably expressing E2 and HPV16-LCR luciferase reporter incubated for 24 hrs by Bright-Glo luciferase reporter gene assay based BRD4 engagement assay; assay type: cell-based
[2] = target: T1, Bromodomain-containing protein 4; experiment: Binding affinity to His-tagged BRD4 bromodomain 1 to 2 (K57 to K550 amino acids) (unknown origin) using Alexa647-labeled BET-inhibitor as fluorescent probe by bromodomain TR-FRET binding assay; assay type: single protein
MX1 = experiment: Antiproliferative activity against human MX1 cells incubated for 72 hrs by cell-titer Glo assay; assay type: functional, cell-based; conditions: MX1, 72 h
[3] = Oral bioavailability in mouse at 10 mg/kg; assay type: ADME, organism-based; conditions: in vivo
[4] = Intrinsic unbound clearance in mouse liver microsomes; assay type: ADME, microsome
Mus musculus = experiment: Unbound clearance in mouse at 10 mg/kg, po; assay type: ADME, organism-based; conditions: in vivo
[5] = AUC in mouse at 10 mg/kg, po; assay type: ADME, organism-based; conditions: in vivo
[6] = Intrinsic unbound clearance in human liver microsomes; assay type: ADME, microsome
[7] = Permeability of the compound by PAMPA method; assay type: ADME; conditions: read-out: permeability

Row | SMILES | IC50 [1] [nM] | Ki [2] [nM] | bioavailability [3] [%] | CL free [4] [mL/min/kg] | CL free (Mus musculus) [mL/min/kg] | AUC [5] [µM·h] | CL free [6] [mL/min/kg] | Papp [7] [×10⁻⁶ cm/s] | EC50 (MX1) [nM]
1 | Cn1cc2c3c(c[nH]c(=O)c31)-c1cc(CS(C)(=O)=O)ccc1N(C(=O)C1CC1)C2 | 31 | 7.7 | – | – | – | – | – | – | 16
2 | Cn1cc(-c2cc(S(C)(=O)=O)ccc2NCC2CC2)c2cc[nH]c(=O)c21 | 150 | 80 | – | – | – | – | – | – | 140
3 | Cn1cc2c3c(c[nH]c(=O)c31)CN(CC1CC1)c1ccccc1-2 | 95 | 43 | – | – | – | – | – | – | 57
4 | Cn1cc(-c2cc(S(C)(=O)=O)ccc2NCC2CC2)c2cc[nH]c2c1=O | – | – | – | – | – | – | – | – | 17
5 | COC(=O)N1Cc2cn(C)c3c(=O)[nH]cc(c23)-c2cc(CS(C)(=O)=O)ccc21 | 48 | 17 | – | – | – | – | – | – | 78
6 | Cn1cc2c3c(c[nH]c(=O)c31)CN(CC1CC1)c1ccc(S(C)(=O)=O)cc1-2 | 190 | 180 | – | – | – | – | – | – | 140
7 | Cn1cc(-c2cc(CS(C)(=O)=O)ccc2NCC2CC2)c2cc[nH]c2c1=O | – | – | – | – | – | – | – | – | 43
8 | Cn1cc2c3c(c[nH]c(=O)c31)CN(CC1CC1)c1ccc(CS(C)(=O)=O)cc1-2 | 23 | 12 | 23 | < 130 | 733 | 0.64 | < 45 | 2.5 | 19
9 | Cn1cc2c3c(c[nH]c3c1=O)CN(CC1CC1)c1ccc(S(C)(=O)=O)cc1-2 | 28 | 26 | – | – | – | – | – | – | 15
10 | CCS(=O)(=O)Nc1cnc2c(c1)-c1c[nH]c(=O)c3c1c(cn3C)CN2c1ccc(F)cc1F | 32 | 4.4 | – | – | – | – | – | – | 18
11 | Cn1cc(-c2ccccc2NCC2CC2)c2cc[nH]c(=O)c21 | 5000 | 1500 | – | – | – | – | – | – | 3300
12 | Cn1cc(-c2cc(CS(C)(=O)=O)ccc2NCC2CC2)c2cc[nH]c(=O)c21 | 200 | 220 | – | – | – | – | – | – | 140
13 | Cn1cc(-c2ccccc2NCC2CC2)c2cc[nH]c2c1=O | – | – | – | – | – | – | – | – | 1400
14 | Cn1cc2c3c(c[nH]c3c1=O)CN(CC1CC1)c1ccccc1-2 | 23 | 16 | – | – | – | – | – | – | 7.3

Now from value to compound, other results behind:

Row | IC50 [1] [nM] | Ki [2] [nM] | bioavailability [3] [%] | CL free [4] [mL/min/kg] | CL free (Mus musculus) [mL/min/kg] | AUC [5] [µM·h] | CL free [6] [mL/min/kg] | Papp [7] [×10⁻⁶ cm/s] | SMILES | EC50 (MX1) [nM]
15 | 4.6 | 8.4 | 8.2 | 300 | 450 | 0.16 | 183 | 4.3 | Cn1cc2c3c(c[nH]c3c1=O)CN(CC1CC1)c1ccc(CS(C)(=O)=O)cc1-2 | 2
16 | 4.3 | 4.8 | – | – | – | – | – | – | CCS(=O)(=O)Nc1ccc2c(c1)-c1c[nH]c(=O)c3c1c(cn3C)CN2c1ccc(F)cc1 | 5.6
17 | 20 | – | – | – | – | – | – | – | CCS(=O)(=O)Nc1ccc(Oc2ccc(F)cc2F)c(-c2cn(C)c(=O)c3[nH]ccc23)c1 [MIVEBRESIB] | –
18 | 21 | 7.1 | – | – | – | – | – | – | Cn1cc2c3c(c[nH]c3c1=O)CN(C(=O)C1CC1)c1ccc(CS(C)(=O)=O)cc1-2 | 7.8
19 | 6.5 | 2.7 | – | – | – | – | – | – | Cn1cc2c3c(c[nH]c(=O)c31)-c1cc(CS(C)(=O)=O)ccc1N(c1ccc(F)cc1F)C2 | 4
20 | 9 | 7.3 | – | – | – | – | – | – | CCC(=O)N1Cc2c[nH]c3c(=O)n(C)cc(c23)-c2cc(CS(C)(=O)=O)ccc21 | 4.7
21 | 4.1 | 4.1 | – | – | – | – | – | – | CCS(=O)(=O)Nc1cnc2c(c1)-c1cn(C)c(=O)c3[nH]cc(c13)CN2c1ccc(F)cc1F | 7
22 | 3.7 | 4.7 | 48 | 267 | 4830 | 0.13 | 67 | 7.3 | Cn1cc2c3c(c[nH]c3c1=O)CN(C1CCC(F)(F)CC1)c1ccc(CS(C)(=O)=O)cc1-2 | 1.4
23 | 1.5 | 0.87 | 23 | 1400 | 5170 | 0.67 | < 41.7 | 6.6 | Cn1cc2c3c(c[nH]c3c1=O)CN(c1ccc(F)cc1)c1ccc(CS(C)(=O)=O)cc1-2 | 0.72
24 | 2.3 | 2.9 | – | 140 | – | 1.2 | 65 | 5.9 | Cn1cc2c3c(c[nH]c(=O)c31)-c1cc(CS(C)(=O)=O)ccc1N(c1ccccn1)C2 | 5.5
25 | 18 | 2.7 | – | – | – | – | – | – | CCS(=O)(=O)Nc1ccc2c(c1)-c1c[nH]c(=O)c3c1c(cn3C)CN2c1ccccn1 | 4.9

— ChEMBL document CHEMBL4190379 (Bioorg Med Chem Lett, 2018)
